# Read-outs that look alike come from different tables or passages of the source.
# How the values were obtained:
# VRE = assay: Antimicrobial plus BTA against VRE (Table 7); assay type: cell-based, enterococci
# MRSA [1] = assay: Antimicrobial plus BTA against recent clinical MRSA isolates (Table 7); assay type: cell-based, Staphylococcus aureus
# Source text: The four clinical isolates were isolated from patients during the first three months of 2003. […] An intermediate MRSA has been included, as methicillin-resistance has been achieved by means other than production of PBP2a.
# [2] = tested on: MRSA with intermediate resistance to glycopeptides; assay: MIC of vancomycin or teicoplanin for MRSA with intermediate resistance to glycopeptides grown with GBE or NAGly (Table 4); assay type: cell-based, Staphylococcus aureus; settings: NAGly 0.001M; for MIC: Staphylococcus aureus, read-out: MIC of teicoplanin
# MRSA [3] = assay: MIC of methicillin for MRSA isolates grown with glycine or GBE (Table 1); assay type: cell-based, Staphylococcus aureus; settings: 0.0 (Control); for MIC: Staphylococcus aureus
# S. aureus = assay: MIC of methicillin for already sensitive S. aureus with GBE, with or without 1% human plasma (Table 6); assay type: cell-based, Staphylococcus aureus; settings: Staphylococcus aureus, no plasma (Control 1)
# Source text: As previously mentioned, a common cause of auto-infection is due to S. aureus carried on the anterior nares. […] The transforming agents of the present invention may also be used in combination with a suitable antimicrobial to eliminate nasal carriage of MSSA prior to cardiac surgery or other invasive procedures carrying a high risk of auto-infection.
# MRSA [4] = assay: MIC of ceftazidime or cefuroxime for MRSA grown with or without GBE (Table 2); assay type: cell-based, Staphylococcus aureus; settings: Control; for MIC: Staphylococcus aureus
# Source text: Importantly, the usefulness of the agents of the present invention is not limited to increasing bacterial sensitivity to methicillin.
compound,measurement,setting,value
"C#CCC(N)C(=O)O.C#CCC(N)C(=O)O (stereo not shown) [PPG, Propargylglycine (2-Amino-4-pentynoic acid)]","Vancomycin (antimicrobial plus BTA; quantity not named, MIC implied)",VRE; +BTA 0.01%,64 µg/mL
same,"Oxacillin (antimicrobial plus BTA; quantity not named, MIC implied)","MRSA [1]; EMRSA-16, +BTA 0.001%",4 µg/mL
same,"Cephalexin (antimicrobial plus BTA; quantity not named, MIC implied)","MRSA [1]; EMRSA-16, +BTA 0.01%",12 µg/mL
same,"Oxacillin (antimicrobial plus BTA; quantity not named, MIC implied)","MRSA [1]; EMRSA-16, +BTA 0.01%",1.5 µg/mL
same,"Vancomycin (antimicrobial plus BTA; quantity not named, MIC implied)","MRSA [1]; EMRSA-16, +BTA 0.01%",0.25 µg/mL
same,"Oxacillin (antimicrobial plus BTA; quantity not named, MIC implied)","MRSA [1]; EMRSA-17, +BTA 0.001%",8 µg/mL
same,"Cephalexin (antimicrobial plus BTA; quantity not named, MIC implied)","MRSA [1]; EMRSA-17, +BTA 0.01%",6 µg/mL
same,"Oxacillin (antimicrobial plus BTA; quantity not named, MIC implied)","MRSA [1]; EMRSA-17, +BTA 0.01%",2 µg/mL
same,"Vancomycin (antimicrobial plus BTA; quantity not named, MIC implied)","MRSA [1]; EMRSA-17, +BTA 0.01%",0.25 µg/mL
same,"Oxacillin (antimicrobial plus BTA; quantity not named, MIC implied)","MRSA [1]; I-MRSA, +BTA 0.001%",2 µg/mL
same,"Cephalexin (antimicrobial plus BTA; quantity not named, MIC implied)","MRSA [1]; I-MRSA, +BTA 0.01%",0.125 µg/mL
same,"Oxacillin (antimicrobial plus BTA; quantity not named, MIC implied)","MRSA [1]; I-MRSA, +BTA 0.01%",0.125 µg/mL
same,"Vancomycin (antimicrobial plus BTA; quantity not named, MIC implied)","MRSA [1]; I-MRSA, +BTA 0.01%",< 0.25 µg/mL
"CC1=C(C(=O)O)N2C(=O)[C@@H](NC(=O)[C@H](N)c3ccccc3)[C@H]2SC1 [Cephalexin, cephalexin]","Cephalexin (antimicrobial plus BTA; quantity not named, MIC implied)","MRSA [1]; I-MRSA, cephalexin alone",32 µg/mL
"CC(=O)NCC(=O)O [NAGly, N-acetylglycine]",MIC of vancomycin,"[2]; L266 (first line), EMRSA-17 (VISA)",4 mg/L
same,MIC of vancomycin,"[2]; L266 (second line), EMRSA-17 (VISA)",2 mg/L
same,MIC of teicoplanin,"[2]; L266, EMRSA-16 (TISA)",4 mg/L
same,MIC of vancomycin,[2]; NCTC 12493,0.25 mg/L
same,MIC,"[2]; MRSA / NCTC 12493, NCTC 12493",0.15 µg/mL
same,MIC,"[2]; MRSA, L265, EMRSA-16 (TISA)",4 µg/mL
"Cc1onc(-c2ccccc2)c1C(=O)N[C@@H]1C(=O)N2[C@@H]1SC(C)(C)[C@@H]2C(=O)O [Oxacillin, oxacillin]","Oxacillin (antimicrobial plus BTA; quantity not named, MIC implied)","MRSA [1]; EMRSA-16, oxacillin alone",256 µg/mL
same,"Oxacillin (antimicrobial plus BTA; quantity not named, MIC implied)","MRSA [1]; EMRSA-17, oxacillin alone",256 µg/mL
same,"Oxacillin (antimicrobial plus BTA; quantity not named, MIC implied)","MRSA [1]; I-MRSA, oxacillin alone",32 µg/mL
COc1cccc(OC)c1C(=O)N[C@@H]1C(=O)N2[C@@H]1SC(C)(C)[C@@H]2C(=O)O [methicillin],MIC of methicillin,MRSA [3]; CD40 (EMRSA-1),>256 mg/L
same,MIC of methicillin,MRSA [3]; DS09 (EMRSA-1),>256 mg/L
same,MIC of methicillin,MRSA [3]; E15-97 (EMRSA-15),>256 mg/L
same,MIC of methicillin,MRSA [3]; E16-96 (EMRSA-16),>256 mg/L
same,MIC of methicillin,MRSA [3]; JF1-32 (EMRSA-1),>256 mg/L
same,MIC of methicillin,MRSA [3]; L265,>256 mg/L
same,MIC of methicillin,MRSA [3]; L267,>256 mg/L
same,MIC of methicillin,MRSA [3]; L268,>256 mg/L
same,MIC of methicillin,MRSA [3]; L269,>256 mg/L
same,MIC of methicillin,MRSA [3]; L270,>256 mg/L
same,MIC of methicillin,MRSA [3]; L271,>256 mg/L
same,MIC of methicillin,MRSA [3]; L272,>256 mg/L
same,MIC of methicillin,MRSA [3]; L273,>256 mg/L
same,MIC of methicillin,MRSA [3]; L274,>256 mg/L
same,MIC of methicillin,MRSA [3]; L275,>256 mg/L
same,MIC of methicillin,MRSA [3]; L276,>256 mg/L
same,MIC of methicillin,MRSA [3]; L277,>256 mg/L
same,MIC of methicillin,MRSA [3]; L278,>256 mg/L
same,MIC of methicillin,MRSA [3]; L279,>256 mg/L
same,MIC of methicillin,MRSA [3]; L280,>256 mg/L
same,MIC of methicillin,MRSA [3]; L281,>256 mg/L
same,MIC of methicillin,MRSA [3]; L282,>256 mg/L
same,MIC of methicillin,MRSA [3]; L283,>256 mg/L
same,MIC of methicillin,MRSA [3]; L284,>256 mg/L
same,MIC of methicillin,MRSA [3]; L285,>256 mg/L
same,MIC of methicillin,MRSA [3]; L286,>256 mg/L
same,MIC of methicillin,MRSA [3]; L287,>256 mg/L
same,MIC of methicillin,MRSA [3]; L288,>256 mg/L
same,MIC of methicillin,MRSA [3]; L289,>256 mg/L
same,MIC of methicillin,MRSA [3]; L290,>256 mg/L
same,MIC of methicillin,MRSA [3]; L291,>256 mg/L
same,MIC of methicillin,MRSA [3]; L292,>256 mg/L
same,MIC of methicillin,MRSA [3]; L293,>256 mg/L
same,MIC of methicillin,MRSA [3]; L294,>256 mg/L
same,MIC of methicillin,MRSA [3]; MC01 (EMRSA-1),>256 mg/L
same,MIC of methicillin,MRSA [3]; PS3-32 (EMRSA-1),>256 mg/L
same,MIC of methicillin,MRSA [3]; SN31 (EMRSA-1),>256 mg/L
same,MIC of methicillin,MRSA [3]; ST11 (EMRSA-1),>256 mg/L
same,MIC of methicillin,MRSA [3]; SW2-32 (EMRSA-1),>256 mg/L
same,MIC,"MRSA [3]; MRSA / NCTC 12493, NCTC 12493",> 256 µg/mL
same,MIC,"MRSA [3]; MRSA, L266",> 256 µg/mL
same,MIC,S. aureus; 5518 (EMRSA-1),> 256 µg/mL
same,MIC,S. aureus; LHS77,< 0.25 µg/mL
same,MIC,S. aureus; LHS78,0.25 µg/mL
same,MIC,S. aureus; LHS79,0.5 µg/mL
same,MIC,S. aureus; LHS80,0.25 µg/mL
same,MIC,S. aureus; LHS81,< 0.25 µg/mL
same,MIC,S. aureus; LHS82,0.5 µg/mL
same,MIC,S. aureus; LHS83,0.25 µg/mL
same,MIC,S. aureus; LHS84,0.25 µg/mL
same,MIC,S. aureus; LHS85,0.25 µg/mL
same,MIC,S. aureus; LHS86,0.25 µg/mL
same,MIC,S. aureus; LHS87,0.5 µg/mL
same,MIC,S. aureus; LHS88,0.25 µg/mL
same,MIC,S. aureus; LHS89,0.25 µg/mL
same,MIC,S. aureus; LHS90,< 0.25 µg/mL
same,MIC,S. aureus; LHS91,< 0.25 µg/mL
same,MIC,S. aureus; LHS92,0.5 µg/mL
same,MIC,S. aureus; LHS93,0.25 µg/mL
same,MIC,S. aureus; LHS94,0.25 µg/mL
"CC(C)(O/N=C(\C(=O)N[C@@H]1C(=O)N2C(C(=O)[O-])=C(C[n+]3ccccc3)CS[C@H]12)c1csc(N)n1)C(=O)O [Ceftazidime, ceftazidime]",MIC of ceftazidime,MRSA [4]; CD40 (EMRSA-1),>256 mg/L
same,MIC of ceftazidime,MRSA [4]; E15-97 (EMRSA-15),>256 mg/L
same,MIC of ceftazidime,MRSA [4]; E16-96 (EMRSA-16),>256 mg/L
same,MIC of ceftazidime,MRSA [4]; JF1-32 (EMRSA-1),>256 mg/L
same,MIC of ceftazidime,MRSA [4]; MC01 (EMRSA-1),>256 mg/L
same,MIC of ceftazidime,MRSA [4]; PS3-32 (EMRSA-1),>256 mg/L
same,MIC of ceftazidime,MRSA [4]; SN31 (EMRSA-1),>256 mg/L
same,MIC of ceftazidime,MRSA [4]; ST11 (EMRSA-1),>256 mg/L
same,MIC of ceftazidime,MRSA [4]; SW2-32 (EMRSA-1),>256 mg/L
same,MIC,"MRSA [4]; MRSA / NCTC 12493, NCTC 12493, read-out: MIC of ceftazidime",> 256 µg/mL
same,MIC,"MRSA [4]; MRSA, DS09 (EMRSA-1), read-out: MIC of ceftazidime",> 256 µg/mL
"CO/N=C(\C(=O)N[C@@H]1C(=O)N2C(C(=O)O)=C(COC(N)=O)CS[C@H]12)c1ccco1 [Cefuroxime, cefuroxime]",MIC of cefuroxime,MRSA [4]; CD40 (EMRSA-1),>256 mg/L
same,MIC of cefuroxime,MRSA [4]; E15-97 (EMRSA-15),>256 mg/L
same,MIC of cefuroxime,MRSA [4]; E16-96 (EMRSA-16),>256 mg/L
same,MIC of cefuroxime,MRSA [4]; JF1-32 (EMRSA-1),>256 mg/L
same,MIC of cefuroxime,MRSA [4]; MC01 (EMRSA-1),>256 mg/L
same,MIC of cefuroxime,MRSA [4]; PS3-32 (EMRSA-1),>256 mg/L
same,MIC of cefuroxime,MRSA [4]; SN31 (EMRSA-1),>256 mg/L
same,MIC of cefuroxime,MRSA [4]; ST11 (EMRSA-1),>256 mg/L
same,MIC of cefuroxime,MRSA [4]; SW2-32 (EMRSA-1),>256 mg/L
same,MIC,"MRSA [4]; MRSA / NCTC 12493, NCTC 12493, read-out: MIC of cefuroxime",> 256 µg/mL
same,MIC,"MRSA [4]; MRSA, DS09 (EMRSA-1), read-out: MIC of cefuroxime",> 256 µg/mL
"O=C(O)CNC(=O)c1ccccc1 [HA, Hippuric acid (N-Benzoylglycine)]","Vancomycin (antimicrobial plus BTA; quantity not named, MIC implied)",VRE; +BTA 0.1%,64 µg/mL
same,"Oxacillin (antimicrobial plus BTA; quantity not named, MIC implied)","MRSA [1]; EMRSA-16, +BTA 0.01%",6 µg/mL
same,"Cephalexin (antimicrobial plus BTA; quantity not named, MIC implied)","MRSA [1]; EMRSA-16, +BTA 0.1%",6 µg/mL
same,"Oxacillin (antimicrobial plus BTA; quantity not named, MIC implied)","MRSA [1]; EMRSA-16, +BTA 0.1%",4 µg/mL
same,"Vancomycin (antimicrobial plus BTA; quantity not named, MIC implied)","MRSA [1]; EMRSA-16, +BTA 0.1%",0.25 µg/mL
same,"Oxacillin (antimicrobial plus BTA; quantity not named, MIC implied)","MRSA [1]; EMRSA-17, +BTA 0.01%",8 µg/mL
same,"Cephalexin (antimicrobial plus BTA; quantity not named, MIC implied)","MRSA [1]; EMRSA-17, +BTA 0.1%",8 µg/mL
same,"Oxacillin (antimicrobial plus BTA; quantity not named, MIC implied)","MRSA [1]; EMRSA-17, +BTA 0.1%",4 µg/mL
same,"Vancomycin (antimicrobial plus BTA; quantity not named, MIC implied)","MRSA [1]; EMRSA-17, +BTA 0.1%",0.25 µg/mL
same,"Oxacillin (antimicrobial plus BTA; quantity not named, MIC implied)","MRSA [1]; I-MRSA, +BTA 0.01%",4 µg/mL
same,"Cephalexin (antimicrobial plus BTA; quantity not named, MIC implied)","MRSA [1]; I-MRSA, +BTA 0.1%",2 µg/mL
same,"Oxacillin (antimicrobial plus BTA; quantity not named, MIC implied)","MRSA [1]; I-MRSA, +BTA 0.1%",2 µg/mL
same,"Vancomycin (antimicrobial plus BTA; quantity not named, MIC implied)","MRSA [1]; I-MRSA, +BTA 0.1%",< 0.25 µg/mL

# — patent US20060040871A1, “Bacterial transforming agent” (priority 2003, published 2006)
